Source: paper PMC12394895, “Detection and characterisation of ligand-induced conformational changes in acetylcholine binding proteins using biosensors and X-ray crystallography” (RSC Chemical Biology, 2025)

Tests used:
Ls-AChBP [1] = biological target: T1, Ls-AChBP (Lymnaea stagnalis, UniProt P58154); assay: GCI biosensor, steady state; type: binding
T1 construct: soluble homopentamer, AChBP pentamer 125 kDa; amine-coupled for SAW and GCI

Ls-AChBP [2] = biological target: T1, Ls-AChBP; assay: SAW biosensor, phase signal; type: binding; settings: pH 7.4, 25 °C, 5% DMSO; immobilised protein; unreliable (very rough approximation, steady state not always reached)
From the text: SAW biosensor, phase signal on Ls-AChBP

T1 sequence (P58154 20-229): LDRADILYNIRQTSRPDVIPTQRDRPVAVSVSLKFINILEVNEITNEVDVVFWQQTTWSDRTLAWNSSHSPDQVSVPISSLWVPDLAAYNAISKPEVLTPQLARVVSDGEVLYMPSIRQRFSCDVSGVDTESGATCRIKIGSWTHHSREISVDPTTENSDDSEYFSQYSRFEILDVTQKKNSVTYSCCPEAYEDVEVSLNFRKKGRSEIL

## CCn1ccnc1-c1cccc(-c2ccccn2)n1 [VUF24234]
Ls-AChBP [1]
  Kd: 5 µM

## CC(=O)OCC[N+](C)(C)C [acetylcholine]
Ls-AChBP [2]
  Phase KD: 0.61 µM

## Cn1ccnc1/C=C/c1ccc(O)c(O)c1 [VUF22430]
Ls-AChBP [1]
  Kd: 1.3 µM

## VUF6105
Ls-AChBP [2]
  Phase KD: 12 µM

## CN1CCC[C@H]1c1cccnc1 [nicotine]
Ls-AChBP [2]
  Phase KD: 0.035 µM
